Data: patent US10689702B2, “Biomarkers for diabetes” (The Chinese University of Hong Kong, priority 2012, dated 2020)

Tested on: cancer in type 2 diabetic patients
Test: Hazard ratios of drug use for cancer, 5-year prospective cohort (Hong Kong Diabetes Registry)
Format: in vivo, Chinese type 2 diabetic patients
Settings: patients who did not use the drug 2.5 yr prior to enrolment
[1] = Model 1, adjusted for propensity scores
[2] = Model 2, adjusted for risk factors, use of other medications during follow-up and propensity score

Row | Compound | HR(95% CI) for cancer, users versus non user [1] | HR(95% CI) for cancer, users versus non user [2]
1 | CN(C)C(=N)N=C(N)N [Metformin] | 0.38(0.25-0.56) | 0.39(0.25-0.61)
2 | O=C1CSC(=O)N1 [TZDs, Thiazolidinedione] | 0.12(0.03-0.50) | 0.18(0.04-0.72)
3 | Insulin | 0.48(0.31-0.73) | 0.58(0.38-0.89)
